Among the data in ChEMBL document CHEMBL1909046, “DrugMatrix in vitro pharmacology data” are IC50 and Ki values, retold here.

One assay has as its target D(3) dopamine receptor (Homo sapiens, UniProt P35462). Briefly: DRUGMATRIX: Dopamine D3 radioligand binding (ligand: [3H] Spiperone). It counts as cell membranes, CHO, Membrane.
The target in another assay is T1, Androgen receptor (Rattus norvegicus, UniProt P15207). Also: in other assays of this panel Not Active means under 50% inhibition at 10 µM.
T1 sequence (P15207 whole entry): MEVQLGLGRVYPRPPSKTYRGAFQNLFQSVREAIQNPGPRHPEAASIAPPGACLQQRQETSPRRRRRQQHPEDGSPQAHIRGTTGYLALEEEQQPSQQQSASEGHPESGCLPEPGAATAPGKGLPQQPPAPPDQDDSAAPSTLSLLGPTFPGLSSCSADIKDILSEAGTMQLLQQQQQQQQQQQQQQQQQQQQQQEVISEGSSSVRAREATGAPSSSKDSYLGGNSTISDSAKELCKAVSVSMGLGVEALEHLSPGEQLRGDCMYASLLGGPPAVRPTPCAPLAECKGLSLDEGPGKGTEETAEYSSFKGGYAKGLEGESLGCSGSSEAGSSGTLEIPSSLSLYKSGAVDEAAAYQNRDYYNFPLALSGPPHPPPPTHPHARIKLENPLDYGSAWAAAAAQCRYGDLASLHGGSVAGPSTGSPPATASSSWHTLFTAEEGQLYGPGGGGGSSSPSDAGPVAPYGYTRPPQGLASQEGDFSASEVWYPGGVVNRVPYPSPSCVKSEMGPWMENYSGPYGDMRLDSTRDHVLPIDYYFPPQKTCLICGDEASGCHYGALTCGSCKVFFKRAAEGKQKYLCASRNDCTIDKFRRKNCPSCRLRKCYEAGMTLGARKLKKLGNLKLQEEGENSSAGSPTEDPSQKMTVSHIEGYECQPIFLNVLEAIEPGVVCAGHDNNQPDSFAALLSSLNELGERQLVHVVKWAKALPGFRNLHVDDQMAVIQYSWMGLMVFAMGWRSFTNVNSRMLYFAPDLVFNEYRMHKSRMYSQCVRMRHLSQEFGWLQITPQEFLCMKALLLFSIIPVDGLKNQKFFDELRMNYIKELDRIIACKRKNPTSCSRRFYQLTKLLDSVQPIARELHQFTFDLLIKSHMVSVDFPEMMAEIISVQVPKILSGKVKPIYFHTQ

The target in assay [1] is Mitogen-activated protein kinase 1 (Homo sapiens, UniProt P28482). Briefly: DRUGMATRIX: Protein Serine/Threonine Kinase, ERK2 enzyme inhibition (substrate: Myelin Basic Protein). The conditions noted are these: Not Active = under 50% inhibition at 10 µM. On the set-up: species or system Escherichia coli.
Assay [2] in a line: DRUGMATRIX: Tumor Necrosis Factor (TNF), Non-Selective radioligand binding (ligand: [125I] TNF-alpha). It counts as cell membranes, Membrane. Particulars: u-937; Not Active = under 50% inhibition at 10 µM.

Chain of D(3) dopamine receptor (P35462 whole entry): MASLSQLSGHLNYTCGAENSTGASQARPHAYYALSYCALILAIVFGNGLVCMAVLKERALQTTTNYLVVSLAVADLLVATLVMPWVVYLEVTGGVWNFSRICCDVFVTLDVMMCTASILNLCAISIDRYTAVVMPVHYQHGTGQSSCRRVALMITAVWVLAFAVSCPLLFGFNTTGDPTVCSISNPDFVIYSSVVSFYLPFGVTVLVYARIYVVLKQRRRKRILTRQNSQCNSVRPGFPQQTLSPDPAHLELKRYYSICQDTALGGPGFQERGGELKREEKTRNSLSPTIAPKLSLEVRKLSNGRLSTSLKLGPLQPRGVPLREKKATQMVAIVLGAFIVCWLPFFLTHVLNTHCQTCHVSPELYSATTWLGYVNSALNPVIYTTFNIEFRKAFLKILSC
Chain of Mitogen-activated protein kinase 1 (P28482 whole entry): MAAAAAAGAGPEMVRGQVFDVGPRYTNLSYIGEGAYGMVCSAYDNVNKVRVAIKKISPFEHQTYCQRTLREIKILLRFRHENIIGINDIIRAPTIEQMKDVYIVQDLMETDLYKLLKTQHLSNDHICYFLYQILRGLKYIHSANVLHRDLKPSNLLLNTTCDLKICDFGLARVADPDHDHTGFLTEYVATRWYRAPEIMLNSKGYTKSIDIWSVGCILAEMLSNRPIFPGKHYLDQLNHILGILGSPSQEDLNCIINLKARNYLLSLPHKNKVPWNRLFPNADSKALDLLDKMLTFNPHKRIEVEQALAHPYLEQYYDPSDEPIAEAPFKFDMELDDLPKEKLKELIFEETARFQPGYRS

Broadly, the IC50 is the concentration needed to halve the response being measured. One may read the Ki as a dissociation constant, usually derived from enzyme kinetics or from competition with a known ligand. In the case of `CCOc1nc2cccc(C(=O)O)c2n1Cc1ccc(-c2ccccc2-c2nnn[nH]2)cc1`, the IC50 result (on D(3) dopamine receptor (cho); at Androgen receptor; in assay [1]; in assay [2]) was “Not Active” each time. The Ki entry in assay [2] is recorded as “Not Active”.

Consider `O=C(O)CCCc1cccs1`, for which the IC50 entry (at D(3) dopamine receptor (cho); against Androgen receptor; in assay [1]; in assay [2]) was “Not Active” in each case. Further, in assay [2], the Ki result is “Not Active”.

Regarding `NC(=O)c1cccc(N)c1` [3-AMINOBENZAMIDE], the IC50 entry (on D(3) dopamine receptor (cho); against Androgen receptor; in assay [1]; in assay [2]) was “Not Active” throughout. Besides, in assay [2], the Ki result is given as “Not Active”.

In the case of `CC(=O)Oc1ccccc1C(=O)O` [ASPIRIN], the IC50 result (at D(3) dopamine receptor (cho); at Androgen receptor; in assay [1]; in assay [2]) was “Not Active” each time. In addition, in assay [2], the Ki result is recorded as “Not Active”.

With `CC(=O)OC[C@H]1O[C@@H](n2ncc(=O)[nH]c2=O)[C@H](OC(C)=O)[C@@H]1OC(C)=O` [AZARIBINE], the IC50 entry (at D(3) dopamine receptor (cho); at Androgen receptor; in assay [1]; in assay [2]) was “Not Active” throughout. The Ki entry in assay [2] is recorded as “Not Active”.

Take `COc1cc(OC)c(C(=O)CCCN2CCCC2)c(OC)c1` [BUFLOMEDIL]: the IC50 entry (on D(3) dopamine receptor (cho); against Androgen receptor; in assay [1]; in assay [2]) was “Not Active” in each case. In addition, the Ki entry in assay [2] is “Not Active”.

Regarding `CNC1=Nc2ccc(Cl)cc2C(c2ccccc2)=[N+]([O-])C1` [CHLORDIAZEPOXIDE], the IC50 result (on D(3) dopamine receptor (cho); on Androgen receptor; in assay [1]; in assay [2]) was “Not Active” each time. Besides, the Ki entry in assay [2] was “Not Active”.

With `CC(C)NCC(O)c1ccccc1Cl` (stereo not drawn) [CLORPRENALINE], the IC50 entry (on D(3) dopamine receptor (cho); at Androgen receptor; in assay [1]; in assay [2]) was “Not Active” each time. Further, the Ki result in assay [2] is given as “Not Active”.

On to `COC(=O)Nc1nc2cc(C(=O)c3ccc(F)cc3)ccc2[nH]1` [FLUBENDAZOLE], for which the IC50 result (at D(3) dopamine receptor (cho); on Androgen receptor; in assay [1]; in assay [2]) was “Not Active” throughout. Besides, in assay [2], the Ki entry was “Not Active”.

For the molecule `CC(=O)OCC(=O)[C@@]1(O)CC[C@H]2[C@@H]3CCC4=CC(=O)CC[C@]4(C)[C@@]3(F)[C@@H](O)C[C@@]21C` [FLUDROCORTISONE ACETATE], the half-inhibitory concentration (IC50) entry (at D(3) dopamine receptor (cho); at Androgen receptor; in assay [1]; in assay [2]) was “Not Active” in each case. In addition, the Ki result in assay [2] was “Not Active”.

On to `CCOC(=O)c1ncn2c1CN(C)C(=O)c1cc(F)ccc1-2` [FLUMAZENIL], for which the IC50 entry (at D(3) dopamine receptor (cho); on Androgen receptor; in assay [1]; in assay [2]) was “Not Active” in each case. Moreover, in assay [2], the Ki result is “Not Active”.

With `Cc1ccc(C)c(OCCCC(C)(C)C(=O)O)c1` [GEMFIBROZIL], the 50% inhibitory concentration (IC50) entry (at D(3) dopamine receptor (cho); against Androgen receptor; in assay [1]; in assay [2]) was “Not Active” throughout. In addition, in assay [2], the inhibition constant (Ki) entry is recorded as “Not Active”.

As for `O=c1c(-c2ccc(O)cc2)coc2cc(O)cc(O)c12` [GENISTEIN], the IC50 result (at D(3) dopamine receptor (cho); on Androgen receptor; in assay [1]; in assay [2]) was “Not Active” each time. In assay [2], the Ki entry was “Not Active”.

`CCC1=C(C)CN(C(=O)NCCc2ccc(S(=O)(=O)NC(=O)N[C@H]3CC[C@H](C)CC3)cc2)C1=O` [GLIMEPIRIDE]: the IC50 result (on D(3) dopamine receptor (cho); against Androgen receptor; in assay [1]; in assay [2]) was “Not Active” in each case. For the same molecule, the Ki result in assay [2] was “Not Active”.

As for `Nc1cc(-c2ccncc2)c[nH]c1=O` [INAMRINONE], the IC50 entry (at D(3) dopamine receptor (cho); on Androgen receptor; in assay [1]; in assay [2]) was “Not Active” throughout. Moreover, the Ki entry in assay [2] was “Not Active”.

`N[C@@H](Cn1ccc(=O)c(O)c1)C(=O)O` [L-MIMOSINE]: the IC50 result (on D(3) dopamine receptor (cho); at Androgen receptor; in assay [1]; in assay [2]) was “Not Active” in each case. The Ki entry in assay [2] is “Not Active”.

For `CN1C(=O)CN=C(c2ccccc2)c2cc([N+](=O)[O-])ccc21` [NIMETAZEPAM], the IC50 result (on D(3) dopamine receptor (cho); at Androgen receptor; in assay [1]; in assay [2]) was “Not Active” in each case. Further, the Ki entry in assay [2] is listed as “Not Active”.

Consider `C[C@@H]1O[C@@H](O[C@H]2C[C@@H](O)[C@]3(CO)[C@H]4[C@H](O)C[C@]5(C)[C@@H](C6=CC(=O)OC6)CC[C@]5(O)[C@@H]4CC[C@]3(O)C2)[C@H](O)[C@H](O)[C@H]1O` [OUABAIN], for which the IC50 result (on D(3) dopamine receptor (cho); against Androgen receptor; in assay [1]; in assay [2]) was “Not Active” throughout. In assay [2], the Ki result is recorded as “Not Active”.

With `CCc1ccc(CCOc2ccc(CC3SC(=O)NC3=O)cc2)nc1` (stereo not drawn) [PIOGLITAZONE], the IC50 entry (at D(3) dopamine receptor (cho); in assay [1]; in assay [2]) was “Not Active” each time. Moreover, the Ki result in assay [2] is “Not Active”.

Turning to `CCCNC(C)C(=O)Nc1ccccc1C` (stereo not drawn) [PRILOCAINE], the IC50 entry (at D(3) dopamine receptor (cho); in assay [1]; in assay [2]) was “Not Active” in each case. The Ki entry in assay [2] was “Not Active”.

As to `CCN(CC)CCNC(=O)c1ccc(N)cc1` [PROCAINAMIDE], the IC50 result (at D(3) dopamine receptor (cho); in assay [1]; in assay [2]) was “Not Active” each time. Moreover, the Ki entry in assay [2] is “Not Active”.

On to `CCN(CC)CCCC(C)Nc1c2ccc(Cl)cc2nc2ccc(OC)cc12` (stereo not drawn) [QUINACRINE], for which the IC50 on D(3) dopamine receptor (read-out: IC50) was 1320 nM; at Androgen receptor it was “Not Active”; in assay [1], “Not Active”; in assay [2], “Not Active”. Also, the Ki was 448 nM on D(3) dopamine receptor (read-out: Ki) and “Not Active” in assay [2].

Turning to `CC[C@]1(O)C[C@@H]2CN(CCc3c([nH]c4ccccc34)[C@@](C(=O)OC)(c3cc4c(cc3OC)N(C)[C@H]3[C@@](O)(C(N)=O)[C@H](O)[C@]5(CC)C=CCN6CC[C@]43[C@@H]65)C2)C1` [VINDESINE], the IC50 result (at D(3) dopamine receptor (cho); against Androgen receptor; in assay [1]; in assay [2]) was “Not Active” each time. Also, the Ki entry in assay [2] is “Not Active”.

Take `CCN(C(C)=O)c1cccc(-c2ccnc3c(C#N)cnn23)c1` [ZALEPLON]: the IC50 result (at D(3) dopamine receptor (cho); in assay [1]; in assay [2]) was “Not Active” each time. The Ki entry in assay [2] is on record as “Not Active”.

As to COBALTOUS CHLORIDE, the IC50 result (on D(3) dopamine receptor (cho); at Androgen receptor; in assay [1]; in assay [2]) was “Not Active” in each case. Also, the Ki entry (on D(3) dopamine receptor (cho); on Androgen receptor; in assay [1]; in assay [2]) was “Not Active” in each case.

Take COLISTIN: the IC50 entry (on D(3) dopamine receptor (cho); at Androgen receptor; in assay [1]; in assay [2]) was “Not Active” throughout. Further, the Ki entry (on D(3) dopamine receptor (cho); on Androgen receptor; in assay [1]; in assay [2]) was “Not Active” each time.
